Laboratory results taken from patent publication US11332452B2, “Pesticidal compositions and methods” (priority 2019, dated 2022).

Tests used:
Format in all cases: in vivo
[1] = system: Cabbage Looper (Trichloplusia Ni, TRIPNI); assay: Insecticidal test for cabbage looper (CL), 128-well diet tray assay; settings: Trichoplusia ni, 168 h, read-out: CL % Control (or Mortality) rating
Experimental: Insecticidal Test for Cabbage Looper (Trichloplusia Ni, TRIPNI) (“CL”)
(§1) Bioassays on cabbage looper (CL; Trichloplusia ni: Lepidoptera) are conducted using a 128-well diet tray assay. One to five second instar CL larvae are placed in each well (3 mL) of the diet tray that had been previously filled with 1 mL of artificial diet to which 50 μg/cm^2 of the test compound (dissolved in 50 μL of 90:10 acetone-water mixture) had been applied (to each of eight wells) and then allowed to dry. Trays are covered with a clear self-adhesive cover, vented to allow gas exchange, and held at 25° C., 14:10 light-dark for five to seven days. Percent mortality is recorded for the larvae in each well; activity in the eight wells is then averaged.

[2] = system: Beet Armyworm (Spodoptera exigua, LAPHEG); assay: Insecticidal test for beet armyworm (BAW), 128-well diet tray assay; settings: 168 h, 50 μg/cm^2 of test compound on artificial diet, second instar larvae, 25° C., five to seven days, average of eight wells, read-out: BAW % Control (or Mortality) rating
Experimental: Insecticidal Test for Beet Armyworm (Spodoptera exigua, LAPHEG) (“BAW”)
as §1, with “beet armyworm (BAW; Spodoptera exigua:” for “cabbage looper (CL; Trichloplusia ni:”, “BAW” for “CL”

[3] = system: Yellow Fever Mosquito (Aedes aegypti, AEDSAE); assay: Insecticidal test for yellow fever mosquito (YFM), 96-well plate larval assay; settings: from 4000 ppm DMSO master solution, diluted; about 1 day-old larvae; room temperature; scored after 3 days
Experimental: Insecticidal Test for Yellow Fever Mosquito (Aedes aegypti, AEDSAE) (“YFM”)
Master plates containing 400 μg of a molecule dissolved in 100 μL of dimethyl sulfoxide (DMSO) (equivalent to a 4000 ppm solution) are used. A master plate of assembled molecules contains 15 μL per well. To this plate, 135 μL of a 90:10 water/acetone mixture is added to each well. A robot (Biomek® NXP Laboratory Automation Workstation) is programmed to dispense 15 μL aspirations from the master plate into an empty 96-well shallow plate (“daughter” plate). There are 6 reps (“daughter” plates) created per master. The created “daughter” plates are then immediately infested with YFM larvae.
The day before plates are to be treated, mosquito eggs are placed in Millipore water containing liver powder to begin hatching (4 g. into 400 mL). After the “daughter” plates are created using the robot, they are infested with 220 μL of the liver powder/larval mosquito mixture (about 1 day-old larvae). After plates are infested with mosquito larvae, a non-evaporative lid is used to cover the plate to reduce drying. Plates are held at room temperature for 3 days prior to grading. After 3 days, each well is observed and scored based on mortality.

Cc1ccc(C(C)C)c(N2C(=O)CS/C2=N\C(=O)NC(C)Cc2ccc(NC(=O)Nc3ccc(C(F)(F)F)cc3)cc2)c1 (stereo not drawn) [Compound A27, (Z)-1-(4-(2-(3-(3-(2-Isopropyl-5-methylphenyl)-4-oxothiazolidin-2-ylidene)ureido)propyl)phenyl)-3-(4-(trifluoromethyl)phenyl)urea]
mortality at 50 µg/cm2 [1]: 50 to 100% | mortality at 50 µg/cm2 [2]: 50 to 100% | YFM % Control (or Mortality) rating [3]: A (80-100)

CC(Cc1ccc(NC(=O)Nc2ccc(C(F)(F)F)cc2)cc1)NC(=O)/N=C1\SCC(=O)N1c1ccccc1C(C)C (stereo not drawn) [Compound A28, (Z)-1-(4-(2-(3-(3-(2-Isopropylphenyl)-4-oxothiazolidin-2-ylidene)ureido)propyl)phenyl)-3-(4-(trifluoromethyl)phenyl)urea]
mortality at 50 µg/cm2 [1]: 50 to 100% | mortality at 50 µg/cm2 [2]: 50 to 100% | YFM % Control (or Mortality) rating [3]: A (80-100)

CC(Cc1ccc(NC(=O)Nc2ccc(C(F)(F)F)cc2)cc1)NC(=O)/N=C1\SCC(=O)N1c1cc(Cl)ccc1C(C)C (stereo not drawn) [Compound A29, (Z)-1-(4-(2-(3-(3-(5-Chloro-2-isopropylphenyl)-4-oxothiazolidin-2-ylidene)ureido)propyl)phenyl)-3-(4-(trifluoromethyl)phenyl)urea]
mortality at 50 µg/cm2 [1]: 50 to 100% | mortality at 50 µg/cm2 [2]: 50 to 100% | YFM % Control (or Mortality) rating [3]: A (80-100)

CCC(C)Oc1ccc(C)cc1N1C(=O)CS/C1=N\C(=O)NC(C)Cc1ccc(NC(=O)Nc2ccc(C(F)(F)F)cc2)cc1 (stereo not drawn) [Compound A30, (Z)-1-(4-(2-(3-(3-(2-(sec-Butoxy)-5-methylphenyl)-4-oxothiazolidin-2-ylidene)ureido)propyl)phenyl)-3-(4-(trifluoromethyl)phenyl)urea]
mortality at 50 µg/cm2 [1]: 50 to 100% | mortality at 50 µg/cm2 [2]: 50 to 100% | YFM % Control (or Mortality) rating [3]: B (More than 0-Less than 80)

COc1ccc(N2C(=O)CS/C2=N\C(=O)NC(C)Cc2ccc(NC(=O)Nc3ccc(C(F)(F)F)cc3)cc2)c(C)c1 (stereo not drawn) [Compound A31, (Z)-1-(4-(2-(3-(3-(4-Methoxy-2-methylphenyl)-4-oxothiazolidin-2-ylidene)ureido)propyl)phenyl)-3-(4-(trifluoromethyl)phenyl)urea]
mortality at 50 µg/cm2 [1]: 50 to 100% | mortality at 50 µg/cm2 [2]: 0 to 50% | YFM % Control (or Mortality) rating [3]: A (80-100)

Cc1ccc(C(C)C)c(-n2ccs/c2=N\C(=O)NC(C)Cc2ccc(NC(=O)Nc3ccc(OC(F)(F)F)cc3)cc2)c1 (stereo not drawn) [Compound A33, (Z)-1-(4-(2-(3-(3-(2-Isopropyl-5-methylphenyl)thiazol-2(3H)-ylidene)ureido)propyl)phenyl)-3-(4-(trifluoromethoxy)phenyl)urea]
mortality at 50 µg/cm2 [1]: 50 to 100% | mortality at 50 µg/cm2 [2]: 50 to 100% | YFM % Control (or Mortality) rating [3]: A (80-100)

CC(Cc1ccc(NC(=O)Nc2ccc(OC(F)(F)F)cc2)cc1)NC(=O)/N=C1\SCC(=O)N1c1ccccc1C(C)C (stereo not drawn) [Compound A34, (Z)-1-(4-(2-(3-(3-(2-Isopropylphenyl)-4-oxothiazolidin-2-ylidene)ureido)propyl)phenyl)-3-(4-(trifluoromethoxy)phenyl)urea]
mortality at 50 µg/cm2 [1]: 50 to 100% | mortality at 50 µg/cm2 [2]: 50 to 100% | YFM % Control (or Mortality) rating [3]: A (80-100)

CC(Cc1ccc(NC(=O)Nc2ccc(OC(F)(F)F)cc2)cc1)NC(=O)/N=C1\SCC(=O)N1c1cc(Cl)ccc1C(C)C (stereo not drawn) [Compound A35, (Z)-1-(4-(2-(3-(3-(5-Chloro-2-isopropylphenyl)-4-oxothiazolidin-2-ylidene)ureido)propyl)phenyl)-3-(4-(trifluoromethoxy)phenyl)urea]
mortality at 50 µg/cm2 [1]: 50 to 100% | mortality at 50 µg/cm2 [2]: 50 to 100% | YFM % Control (or Mortality) rating [3]: A (80-100)

CC(Cc1ccc(NC(=O)Nc2ccc(OC(F)(F)F)cc2)cc1)NC(=O)/N=C1\SCC(=O)N1c1cc(Cl)ccc1OC(F)(F)F (stereo not drawn) [Compound A36, (Z)-1-(4-(2-(3-(3-(5-Chloro-2-(trifluoromethoxy)phenyl)-4-oxothiazolidin-2-ylidene)ureido)propyl)phenyl)-3-(4-(trifluoromethoxy)phenyl)urea]
mortality at 50 µg/cm2 [1]: 50 to 100% | mortality at 50 µg/cm2 [2]: 50 to 100% | YFM % Control (or Mortality) rating [3]: A (80-100)

CCCc1ccc(OC)cc1N1C(=O)CS/C1=N\C(=O)NC(C)Cc1ccc(NC(=O)Nc2ccc(OC(F)(F)F)cc2)cc1 (stereo not drawn) [Compound A37, (Z)-1-(4-(2-(3-(3-(5-Methoxy-2-propylphenyl)-4-oxothiazolidin-2-ylidene)ureido)propyl)phenyl)-3-(4-(trifluoromethoxy)phenyl)urea]
mortality at 50 µg/cm2 [1]: 50 to 100% | mortality at 50 µg/cm2 [2]: 50 to 100% | YFM % Control (or Mortality) rating [3]: B (More than 0-Less than 80)

Cc1ccc(OCC(F)(F)F)c(N2C(=O)CS/C2=N\C(=O)NC(C)Cc2ccc(NC(=O)Nc3ccc(OC(F)(F)F)cc3)cc2)c1 (stereo not drawn) [Compound A38, (Z)-1-(4-(2-(3-(3-(5-Methyl-2-(2,2,2-trifluoroethoxy)phenyl)-4-oxothiazolidin-2-ylidene)ureido)propyl)phenyl)-3-(4-(trifluoromethoxy)phenyl)urea]
mortality at 50 µg/cm2 [1]: 50 to 100% | mortality at 50 µg/cm2 [2]: 50 to 100% | YFM % Control (or Mortality) rating [3]: B (More than 0-Less than 80)

CCC(C)Oc1ccc(C)cc1N1C(=O)CS/C1=N\C(=O)NC(C)Cc1ccc(NC(=O)Nc2ccc(OC(F)(F)F)cc2)cc1 (stereo not drawn) [Compound A39, (Z)-1-(4-(2-(3-(3-(2-(sec-Butoxy)-5-methylphenyl)-4-oxothiazolidin-2-ylidene)ureido)propyl)phenyl)-3-(4-(trifluoromethoxy)phenyl)urea]
mortality at 50 µg/cm2 [1]: 50 to 100% | mortality at 50 µg/cm2 [2]: 50 to 100% | YFM % Control (or Mortality) rating [3]: D (No activity noticed in this bioassay)

CCc1cccc(C)c1N1C(=O)CS/C1=N\C(=O)NC(C)Cc1ccc(NC(=O)Nc2ccc(OC(F)(F)F)cc2)cc1 (stereo not drawn) [Compound A40, (Z)-1-(4-(2-(3-(3-(2-Ethyl-6-methylphenyl)-4-oxothiazolidin-2-ylidene)ureido)propyl)phenyl)-3-(4-(trifluoromethoxy)phenyl)urea]
mortality at 50 µg/cm2 [1]: 50 to 100% | mortality at 50 µg/cm2 [2]: 50 to 100% | YFM % Control (or Mortality) rating [3]: A (80-100)

Cc1cc(Cl)c(N2C(=O)CS/C2=N\C(=O)NC(C)Cc2ccc(NC(=O)Nc3ccc(OC(F)(F)F)cc3)cc2)cc1C (stereo not drawn) [Compound A41, (Z)-1-(4-(2-(3-(3-(2-Chloro-4,5-dimethylphenyl)-4-oxothiazolidin-2-ylidene)ureido)propyl)phenyl)-3-(4-(trifluoromethoxy)phenyl)urea]
mortality at 50 µg/cm2 [1]: 50 to 100% | mortality at 50 µg/cm2 [2]: 50 to 100% | YFM % Control (or Mortality) rating [3]: B (More than 0-Less than 80)

CC(Cc1ccc(NC(=O)Nc2ccc(OC(F)(F)F)cc2)cc1)NC(=O)/N=C1\SCC(=O)N1c1cccc2c1CCCC2 (stereo not drawn) [Compound A42, (Z)-1-(4-(2-(3-(4-Oxo-3-(5,6,7,8-tetrahydronaphthalen-1-yl)thiazolidin-2-ylidene)ureido)propyl)phenyl)-3-(4-(trifluoromethoxy)phenyl)urea]
mortality at 50 µg/cm2 [1]: 50 to 100% | mortality at 50 µg/cm2 [2]: 50 to 100% | YFM % Control (or Mortality) rating [3]: A (80-100)

Cc1ccc(C(C)C)c(N2C(=O)CS/C2=N\C(=O)Nc2ccc(CNC(=O)Nc3ccc(OC(F)(F)F)cc3)cc2)c1 [Compound A43, (Z)-1-(4-(3-(3-(2-isopropyl-5-methylphenyl)-4-oxothiazolidin-2-ylidene)ureido)benzyl)-3-(4-(trifluoromethoxy)phenyl)urea]
mortality at 50 µg/cm2 [1]: 50 to 100% | mortality at 50 µg/cm2 [2]: 50 to 100% | YFM % Control (or Mortality) rating [3]: A (80-100)

Cc1ccc(C(C)C)c(N2C(=O)CS/C2=N\C(=O)Nc2ccc(NC(=S)Nc3ccc(OC(F)(F)F)cc3)cc2)c1 [Compound A45, (Z)-1-(3-(2-isopropyl-5-methylphenyl)-4-oxothiazolidin-2-ylidene)-3-(4-(3-(4-(trifluoromethoxy)phenyl)thioureido)phenyl)urea]
mortality at 50 µg/cm2 [1]: 50 to 100% | mortality at 50 µg/cm2 [2]: 50 to 100% | YFM % Control (or Mortality) rating [3]: A (80-100)

Cc1ccc(C(C)C)c(N2C(=O)CS/C2=N\C(=O)NCCc2ccc(NC(=S)Nc3ccc(OC(F)(F)F)cc3)cc2)c1 [Compound A46, (Z)-1-(3-(2-isopropyl-5-methylphenyl)-4-oxothiazolidin-2-ylidene)-3-(4-(3-(4-(trifluoromethoxy)phenyl)thioureido)phenethyl)urea]
mortality at 50 µg/cm2 [1]: 50 to 100% | mortality at 50 µg/cm2 [2]: 50 to 100% | YFM % Control (or Mortality) rating [3]: A (80-100)
